Source: ChEMBL document CHEMBL2010747, “Synthesis of [12]aneN3-dipeptide conjugates as metal-free DNA nucleases” (Bioorg Med Chem Lett, 2012)
Activity calls are given as the source filed them. The calls are words filed in the database; no cut-off is given here. Peptide text beside a SMILES is read from it. * marks the point of attachment. Fmoc = O=C(OCC1c2ccccc2-c2ccccc21)*

How the values were obtained:
Type in all cases: nucleic-acid assay
Nucleic Acid [1] = assay: Induction of Escherichia coli pUC18 DNA cleavage assessed as formation of open circular DNA at 200 uM after 48 hrs by agarose gel electrophoresis
Nucleic Acid [2] = assay: Displacement of ethidium bromide from calf thymus DNA after 1 min by fluorimetry; settings: Bos taurus
Nucleic Acid [3] = assay: Induction of Escherichia coli pUC18 DNA cleavage assessed as formation of open circular DNA at 200 uM from 6 to 48 hrs by agarose gel electrophoresis
Nucleic Acid [4] = assay: Induction of Escherichia coli pUC18 DNA cleavage assessed as formation of open circular DNA at 200 uM after 48 hrs by agarose gel electrophoresis in presence of hydroxyl radical scavenger t-BuOH
Nucleic Acid [5] = assay: Induction of Escherichia coli pUC18 DNA cleavage assessed as formation of open circular DNA at 200 uM after 48 hrs by agarose gel electrophoresis in presence of […]
Nucleic Acid [6] = assay: Induction of Escherichia coli pUC18 DNA cleavage assessed as formation of open circular DNA at 200 uM after 48 hrs by agarose gel electrophoresis in presence of EDTA
Nucleic Acid [7] = assay: Induction of Escherichia coli pUC18 DNA cleavage assessed as formation of open circular DNA at 200 uM after 48 hrs by agarose gel electrophoresis in presence of hydroxyl radical scavenger DMSO
Nucleic Acid [8] = assay: Induction of Escherichia coli pUC18 DNA cleavage assessed as formation of open circular DNA at 200 uM after 48 hrs by agarose gel electrophoresis in presence of singlet oxygen radical scavenger NaN3
Nucleic Acid [9] = assay: Induction of Escherichia coli pUC18 DNA cleavage assessed as formation of linear DNA at 50 to 500 uM after 48 hrs by agarose gel electrophoresis
Nucleic Acid [10] = assay: Induction of Escherichia coli pUC18 DNA cleavage assessed as formation of linear DNA at 200 uM after 48 hrs by agarose gel electrophoresis

`COC(=O)[C@H](Cc1c[nH]c2ccccc12)NC(=O)[C@@H](N)CC(C)C` was tested, and the Activity (Nucleic Acid [1]) was “inactive”.
An Activity (Nucleic Acid [1]) of 50% and a Kapp (Nucleic Acid [2]) of 4.7 ×10⁴ /M were found for `COC(=O)[C@H](Cc1c[nH]c2ccccc12)NC(=O)[C@H](CC(C)C)NC(=O)CN1CCCNCCCNCCC1` in this work.
For `COC(=O)[C@H](CCCCN)NC(=O)[C@H](CC(C)C)NC(=O)CN1CCCNCCCNCCC1`, the Activity (Nucleic Acid [1]) was 50%, the Activity (Nucleic Acid [3]) was “Active” and the Activity (Nucleic Acid [4]) was “Active”. For the same molecule, the Kapp (Nucleic Acid [2]) was 7.1 ×10⁴ /M, the Activity (Nucleic Acid [5]) was “Active” and the Activity (Nucleic Acid [6]) was “Active”. For the same molecule, the Activity (Nucleic Acid [7]) was “Active”, the Activity (Nucleic Acid [8]) was “Active” and the Activity (Nucleic Acid [9]) was “Active”.
`COC(=O)[C@H](CCCCNC(=O)OCC1c2ccccc2-c2ccccc21)NC(=O)[C@@H](N)CC(C)C` (H-Leu-Lys(Fmoc)-OMe) was tested, and the Activity (Nucleic Acid [1]) was “inactive”.
An Activity (Nucleic Acid [1]) of 50% and a Kapp (Nucleic Acid [2]) of 4 ×10⁴ /M were found for `COC(=O)CNC(=O)[C@H](CC(C)C)NC(=O)CN1CCCNCCCNCCC1` in this work.
An Activity (Nucleic Acid [1]) of 50% and a Kapp (Nucleic Acid [2]) of 4.2 ×10⁴ /M were found for `COC(=O)CNC(=O)CNC(=O)CN1CCCNCCCNCCC1` in this work.
`COC(=O)[C@H](C)NC(=O)[C@H](CC(C)C)NC(=O)CN1CCCNCCCNCCC1` was tested, and the Activity (Nucleic Acid [1]) was 50%, the Activity (Nucleic Acid [3]) was “Active” and the Activity (Nucleic Acid [4]) was “Active”. The Kapp (Nucleic Acid [2]) was 5.9 ×10⁴ /M, the Activity (Nucleic Acid [5]) was “Active” and the Activity (Nucleic Acid [10]) was “inactive”. The Activity (Nucleic Acid [6]) was “Active”, the Activity (Nucleic Acid [7]) was “Active” and the Activity (Nucleic Acid [8]) was “Active”. For the same molecule, the Activity (Nucleic Acid [9]) was “Active”.
With `COC(=O)CNC(=O)CN` the Activity (Nucleic Acid [1]) was “inactive”.
`COC(=O)[C@H](Cc1ccc(O)cc1)NC(=O)[C@@H](N)CC(C)C` (H-Leu-Tyr-OMe) was tested, and the Activity (Nucleic Acid [1]) was “inactive”.
An Activity (Nucleic Acid [1]) of 50% and a Kapp (Nucleic Acid [2]) of 6.6 ×10⁴ /M were found for `COC(=O)[C@H](Cc1ccccc1)NC(=O)[C@H](CC(C)C)NC(=O)CN1CCCNCCCNCCC1` in this work.
With `COC(=O)[C@H](Cc1ccccc1)NC(=O)[C@@H](N)CC(C)C` (H-Leu-Phe-OMe) the Activity (Nucleic Acid [1]) was “inactive”.
An Activity (Nucleic Acid [1]) of 50% and a Kapp (Nucleic Acid [2]) of 7.2 ×10⁴ /M were found for `COC(=O)[C@H](CO)NC(=O)[C@H](CC(C)C)NC(=O)CN1CCCNCCCNCCC1` in this work.
In the case of `COC(=O)CNC(=O)[C@@H](N)CC(C)C` (H-Leu-Gly-OMe), the Activity (Nucleic Acid [1]) is reported as “inactive”.
In the case of `COC(=O)[C@H](C)NC(=O)[C@@H](N)CC(C)C` (H-Leu-Ala-OMe), the Activity (Nucleic Acid [1]) is reported as “inactive”.
An Activity (Nucleic Acid [1]) of 50% and a Kapp (Nucleic Acid [2]) of 6.4 ×10⁴ /M were found for `COC(=O)[C@H](Cc1ccc(O)cc1)NC(=O)[C@H](CC(C)C)NC(=O)CN1CCCNCCCNCCC1` in this work.
For `COC(=O)[C@H](CO)NC(=O)[C@@H](N)CC(C)C` (H-Leu-Ser-OMe), the Activity (Nucleic Acid [1]) was “inactive”.
